Laboratory results as given in PubChem BioAssay AID1278 (The Scripps Research Institute Molecular Screening Center, 2008).
Active and inactive are the calls of the source. No rule for the calls is given here.

Target: Neuropeptide Y receptor type 2 (Homo sapiens) (UniProt P49146)
Assay: NPY-Y2 antagonist potency, selectivity check, dose response, counter-screen for NPY-Y1 antagonist project, cell-based (AID 1278)
Conditions: NPY-Y2 expressing cells, antagonism, cell-based HTS

Chain of Neuropeptide Y receptor type 2 (Homo sapiens) (P49146 whole entry, looked up): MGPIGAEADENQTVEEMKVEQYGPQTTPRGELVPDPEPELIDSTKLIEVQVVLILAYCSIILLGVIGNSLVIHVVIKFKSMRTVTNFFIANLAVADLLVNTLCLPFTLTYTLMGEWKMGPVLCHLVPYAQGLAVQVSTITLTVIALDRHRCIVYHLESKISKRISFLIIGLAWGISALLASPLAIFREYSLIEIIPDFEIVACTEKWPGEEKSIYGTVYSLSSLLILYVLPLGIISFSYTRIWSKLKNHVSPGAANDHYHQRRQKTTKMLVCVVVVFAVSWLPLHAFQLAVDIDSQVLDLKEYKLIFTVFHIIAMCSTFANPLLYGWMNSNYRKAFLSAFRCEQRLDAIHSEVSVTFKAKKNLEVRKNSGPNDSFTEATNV

IC50: < 35 µM (inactive)
Structure (SMILES): CCc1cc(-c2[nH]ncc2-c2ccc3c(c2)OCO3)c(O)cc1O
